Patent publication US20240059685A1, “PIEZO1 AGONISTS FOR THE PROMOTION OF BONE FORMATION” (BIOVENTURES, LLC, priority 2019, published 2024)

Tests used:
femoral cortical bone = assay: Ex vivo femoral cortical bone organ culture, qPCR; format: cell-based; settings: cortical bone organ culture from 5-week-old mice, 10 μM, 4 hours, vs DMSO
Experimental: Femoral organ culture. Female mice at 5 weeks of age were euthanized in a CO2 chamber. Femurs were dissected and both ends were removed in a culture hood. Bone marrow was then flushed out using PBS and the periosteal surface was scraped to remove periosteal cells. Femoral shafts were then cultured in a 12-well-plate with 1 ml of α-MEM supplemented with 10% FBS and 1% penicillin/streptomycin/glutamine for 24 hours. We then treated femur shafts with 10 μM Yoda1 (Sigma, St. Louis, MO) or DMSO for 4 hours. Femur shafts were then collected for RNA isolation and qPCR analysis. Ex vivo femoral organ culture was repeated twice with three biological replicates.
Quantitative PCR. Organs and whole bones were harvested from animals, removed of soft tissues, and stored immediately in liquid nitrogen. We prepared osteocyte-enriched bone by removing the ends of femurs and tibias and then flushing the bone marrow with PBS. We then scraped the bone surface with a scalpel and froze them in liquid nitrogen for later RNA isolation, or decalcified them for genomic DNA isolation. We isolated total RNA using TRIzol (Life technologies, NY), according to the manufacturer's instructions and prepared cDNA using High Capacity first strand cDNA synthesis kit (Life Technologies). We performed quantitative RT-PCR using the following Taqman assays from Applied Biosystems: Piezo1 (Mm01241549_m1); Piezo2 (Mm01265861_m1); Ptgs2 (Mm00478374_m1); Cyr61 (Mm00487498_m1); Wnt1 (Mm01300-555_g1); Yap1 (Mm011432-63_m1); Taz (Mm01289583_m1); Tnfsf11 Mm00441906_m1; Tnfrsf11b (Mm00435452_m1); Sost (Mm00470479_m1); and ribosomal protein S2 (Mrps2) (Mm00475529_m1). We calculated relative mRNA amounts using the ΔCt method (Livak and Schmittgen, 2001). We isolated genomic DNA from decalcified cortical bone after digestion with proteinase K and phenol/chloroform extraction. We obtained two custom Taqman assays from Applied Biosystems for quantifying Piezo1 gene deletion efficiency: one specific for sequences between the loxP sites and the other specific for sequences downstream from the 3′ loxP site.

C57BL/6J mice [1] = assay: In vivo bone mass evaluation by μCT and body weight after 2 weeks of administration; settings: 4-month-old female C57BL/6J mice, 5 μmol/kg intraperitoneally, 5 days per week for 2 weeks
Experimental: (§1) To quantify cancellous bone formation, we injected mice with calcein (20 mg/kg body weight) intraperitoneally 7 and 3 days before harvest. To quantify periosteal and endocortical bone formation, we injected mice with calcein (20 mg/kg body weight) and Alizarin Red (20 mg/kg body weight) 10 and 3 days before harvest. For gene expression, we injected Yoda1 into 4-month-old female C57BL/6J mice one time and harvested tibiae 4 hours later for RNA extraction. For bone mass evaluation, we injected Yoda1 into 4-month-old female C57BL/6J mice 5 consecutive days per week for 2 weeks (day 1-5 and day 8-12) and harvested the mice at day 15 for analysis. Yoda1 (Sigma, St. Louis, MO) was dissolved in DMSO at 40 mM as a stock, diluted in 5% ethanol, and injected intraperitoneally at 5 μmol/kg body weight. Mice were rank-ordered by body weight and then assigned to Veh or Yoda1 groups to give identical group means. All investigators involved in data collection were blinded as to the genotype and group of the mice.
Skeletal analysis. Tibial X-rays were obtained using an UltraFocus X-ray machine (Faxitron Bioptics, Tucson, Arizona) and BMD of the lumbar spine and femur were measured by dual-energy X-ray absorptiometry using a PIXImus Densitometer (GE-Lunar Corp.) Three dimensional bone volume and architecture of L4 vertebra, femur, and tibia were measured by μCT (model μCT40, Scanco Medical, Wayne, PA). The femur, vertebrae (L4), or tibia, were cleaned of soft tissues and fixed in 10% Millonig's formalin for 24 hours. Bone were then gradually dehydrated into 100% ethanol. Bone samples were loaded into a 12.3 mm diameter scanning tube and images acquired in the μCT40. The scans were integrated into 3D voxel images (1024×1024 pixel matrices for each individual planar stack) and a Gaussian filter (sigma=0.8, support=1) was used to reduce signal noise. Scanco Eval Program v.6.0 was used for measuring bone volume. A threshold of 220 mg/cm^3 was applied to all scans at medium resolution (E=55 kVp, I=145 μA, integration time=200 ms) for trabecular bone measurements. The cortical bone and the primary spongiosa were manually excluded from the analysis. Trabecular bone measurements at the distal femur were made on 151 slices beginning 8-10 slices away from the growth plate and proceeding proximally. […] All trabecular measurements were made by drawing contours every 10 to 20 slices and voxel counting was used for bone volume per tissue volume and sphere filling distance transformation indices, without pre-assumptions about the bone shape as a rod or plate for trabecular microarchitecture. Femoral cortical thickness, periosteal circumference, and endocortical circumference were measured at the mid-diaphysis. For tibial cortical thickness, we analyzed 18 slices 5 mm proximal from the distal tibiofibular junction. Vertebral cortical bone thickness was determined on the ventral cortical wall using contours of cross-sectional images, drawn to exclude trabecular bone. Cortical analysis were measured at a threshold of 260 mg/cm^3. Calibration and quality control were performed weekly using five density standards and spatial resolution was verified monthly using a tungsten wire rod. We based beam-hardening correction on the calibration records. Corrections for 200 mg hydroxyapatite were made for all energies.

C57BL/6J mice [2] = assay: Serum osteocalcin and CTX ELISA after 2 weeks of administration; format: in vivo; settings: 4-month-old female C57BL/6J mice, 5 μmol/kg intraperitoneally, 5 days per week for 2 weeks
Experimental: as §1
Osteocalcin and CTX ELISA. Circulating osteocalcin and CTX in serum was measured using a mouse Osteocalcin enzyme immunoassay kit (Thermo Fisher) and RatLaps™ (CTX-I) EIA kit (Immunodiagnostic Systems, Boldon, UK) respectively according to the manual provided by manufacturers. Blood was collected by retro-orbital bleeding into 1.7 mL microcentrifuge tubes. […]

## Clc1cccc(Cl)c1CSc1nnc(-c2cnccn2)s1 [Yoda1]
Femoral cortical bone
  Cyr61 expression: promoted expression
  Ptgs2 expression: promoted expression
  Sost expression: decreased
  Tnfrsf11b expression: promoted expression
  Wnt1 expression: promoted expression
C57BL/6J mice [1]
  body weight: did not alter
  cancellous bone mass in the distal femur: increased
  cancellous bone volume in vertebrae: did not detect changes
  cortical thickness in the distal femur: increased
  cortical thickness in the vertebra: increased
C57BL/6J mice [2]
  serum levels of CTX, a bone resorption marker: did not observe changes
  serum levels of osteocalcin, a bone formation marker: increased
